Experimental data reported in US20250339569A1, “CARBONIC ANHYDRASE IX LIGANDS” (priority 2021, published 2025).
Starred links: 1 amine or outer side, 2 acyl side, 3 side chain; linkers in the order of their positions; H or OH if unused. Positions of bridges follow the written chain, without caps; N, C: chain ends. Non-standard residues stand in square brackets, D forms with d. Residues, ends and D or L forms follow the SMILES beside them. *: point of attachment. NH(CH2)3NHDOTA = O=C(O)CN1CCN(CC(=O)O)CCN(CC(=O)NCCCN*)CCN(CC(=O)O)CC1; X3 = O=C(O)CN1CCN(CC(=O)O)CCN(CC(=O)NCCCOCCOCCOCCCN*)CCN(CC(=O)O)CC1; DOTA = O=C(O)CN1CCN(CC(=O)O)CCN(CC(=O)*)CCN(CC(=O)O)CC1; mXylylene = c1cc(C[*:1])cc(C[*:2])c1; X2 = O=C(CN1CCC(N[*:1])CC1)[*:2]; Suc = O=C(CCC(=O)[*:2])[*:1]

Experiments:
[1] = target: T1, Recombinant soluble human NEP (Homo sapiens, UniProt P08473); experiment: Proteolytic stability assay against NEP; type: in vitro ADME; conditions: 100 ng/mL NEP, 10 μM compound, 37°C
T1 construct: Recombinant soluble human NEP; purchased BioTechne, Wiesbaden, Germany
Protocol: To assess the stability of compounds against NEP, the compounds were subjected to an in vitro assay based on the protocol described by Edelson et al. (Edelson et al., Pulmonary pharmacology & therapeutics, 2013, 26, 229-238).
Recombinant soluble human NEP (BioTechne, Wiesbaden, Germany) at a concentration of 100 ng/mL was mixed with the compound (10 μM) and a stable internal standard (10 μM) and incubated at 37° C. After several time points, samples were taken and analyzed with LC-MS.
The activity of NEP was examined using a commercially available chromogenic substrate of NEP.

[2] = target: T2, human carbonic anhydrase IX (hCAIX-Fc) (Homo sapiens, UniProt Q16790); experiment: Surface plasmon resonance assay with hCAIX-Fc; type: binding; conditions: 25° C.; for t1/2 category (activity): SPR dissociation half-life, hCAIX-Fc; for Kd: SPR, hCAIX-Fc captured, read-out: pKD category (activity) (converted)
T2 construct: purchased SinoBliological (Sino Biological) 10107-H02H

[3] = Plasma stability assay, mouse plasma; conditions: mouse plasma, 37°C, 4 h
[4] = target: T3, CAIX-expressing human HT-29 colorectal cancer cells (Homo sapiens, UniProt Q16790); experiment: FACS binding assay (IC50 determination, competition with tracer 3BP-2776 or 3BP-4149); conditions: FACS competition on HT-29 cells, Tracer ID 3BP-2776 (10 nM, biotin-labeled), 4° C., 1 hour; read-out: pIC50 category (activity) (converted)
T3 construct: CAIX-expressing human HT-29 colorectal cancer cells; host or cells: HT-29 human colorectal cancer cells
Procedure, shortened: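 HT-29 cells in FACS buffer (PBS, 1% FCS) at 500.000 cells/ml were exposed to compounds competing with a labelled tracer, with biotinylated compounds detected by 1 μg/mL APC-streptavidin for 30 min on ice. APC/Cy5 median fluorescence was read by flow cytometry and IC50 derived by 4PL fit.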

[5] = target: human CAIX (Homo sapiens, UniProt Q16790); experiment: In vitro SPR binding assay of DPI-4452, natLu-DPI-4452 and natGa-DPI-4452 to CAIX (anti-human Fc capture); design: purchased SinoBliological (Sino Biological) 10107-H02H; conditions: SPR
Protocol: Surface Plasmon Resonance (SPR) studies were performed on a Biacore™ T200 using a ligand capture approach. Basically, anti-human Fc antibodies were immobilized on the surface of a sensor chip and CAIX was captured on the functionalized surface via its Fc Tag.
Then, each compound was injected at increasing concentrations on the captured CAIX in order to measure the in real-time interaction of the compound to its target (i.e. the captured CAIX). The in real-time monitoring of the association and dissociation of the interaction gives access to the interaction kinetics parameters (i.e. the association and dissociation rate constants and the resulting affinity constants).
• A series S CM5 sensor chip was used (Cytiva). • All reagents used for the immobilization procedure were part of the Amine Coupling Kit, type 2 and/or the Human Antibody Capture Kit (Cytiva). The running buffer (HBS-EP+) was prepared by 10-fold dilution of the stock HBS-EP+ 10× solution (Cytiva). • Anti-human Fc antibodies stock solution (0.5 mg/mL in 0.15 M NaCl) was diluted in 10 mM sodium acetate pH 5.0 to a final concentration of 25 μg/mL directly into a plastic vial 7 mm. • Amine coupling reagents were transferred into plastic vials 7 mm as follow: • 95 μL of 0.4 M 1-ethyl-3-(3-dimethylaminopropyl)carbodiimide (EDC). • 95 μL of 0.1 M N-hydroxysuccinimide (NHS). • An empty plastic vial 7 mm was added in the Biacore™ sample rack for mixing. • 150 μL of 1 M ethamolamine-HCl, pH 8.5. • Plastic vials were closed with rubber caps and the sample rack was inserted into the Biacore™ T200 sample compartment. • The Biacore™ T200 Amine Wizard was used to immobilize the anti-Human Fc antibodies on the four flow-cells of a series S CM5 sensor chip simultaneously with defined contact time of 360 seconds and flow-rate of 5 μL/min. • The immobilization procedure was performed at 25° C., following Cytiva's recommendations, as described in Table 23.
This procedure allowed to reach immobilization levels between 6000 and 9000 RU of anti-human Fc antibodies on the sensor chip surface.
• CAIX (Sino Biological, 10107-H02H) stock solution was prepared from lyophilized material reconstituted with deionized water to a concentration of 0.25 μg/mL (3.69 μM), following the supplier recommendations. • CAIX working solution was obtained after dilution of CAIX stock solution with PBS-P+1×, 0.1% DMSO to a final concentration of 200 nM directly in a Biacore™ plastic vial.
• For each measurement, the raw surface plasmon resonance response (RU) was plotted against time (s) as a sensorgram using the Biacore™ T200 Control Software. • Raw data were corrected by double referencing with subtraction of the signal of both the reference flow-cell and the blank cycle. • The association and dissociation rate constants (ka and kd, respectively), as well as the dissociation constant KD and dissociation half-life t1/2 were determined from the corrected sensorgrams by fitting the data to a 1:1 Langmuir binding model with the Biacore™ T200 evaluation software.

T1 sequence (P08473 52-750 limits assumed): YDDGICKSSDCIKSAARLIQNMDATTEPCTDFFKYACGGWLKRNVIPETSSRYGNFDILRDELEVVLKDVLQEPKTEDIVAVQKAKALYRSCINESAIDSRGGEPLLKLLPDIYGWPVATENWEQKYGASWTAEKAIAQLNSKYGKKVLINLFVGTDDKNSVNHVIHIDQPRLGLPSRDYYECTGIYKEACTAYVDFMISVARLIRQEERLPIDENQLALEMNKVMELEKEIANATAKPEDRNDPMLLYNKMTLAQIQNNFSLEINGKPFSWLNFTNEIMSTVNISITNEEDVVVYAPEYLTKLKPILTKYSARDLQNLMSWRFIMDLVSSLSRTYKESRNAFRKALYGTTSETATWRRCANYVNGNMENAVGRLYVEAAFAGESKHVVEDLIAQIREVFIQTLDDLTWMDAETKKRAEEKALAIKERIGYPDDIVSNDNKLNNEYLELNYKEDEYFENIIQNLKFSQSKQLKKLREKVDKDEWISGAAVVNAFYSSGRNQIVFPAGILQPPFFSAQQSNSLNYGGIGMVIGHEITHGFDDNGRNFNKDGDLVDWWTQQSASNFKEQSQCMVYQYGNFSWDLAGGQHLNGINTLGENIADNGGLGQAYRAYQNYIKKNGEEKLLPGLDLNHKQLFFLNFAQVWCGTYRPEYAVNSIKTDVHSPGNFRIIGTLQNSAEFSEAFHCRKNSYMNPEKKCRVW

Row | Structure (SMILES) | % intact compound remaining after 24 h incubation [1] [%] | t1/2 category (activity) [2] | % intact compound remaining (incubation time) [3] [%] | IC50 [4] [nM] | Kd [2] [nM] | affinity of binding to CAIX [5]
1 | CC(C)C[C@@H]1NC(=O)[C@H](Cc2c[nH]c3ccccc23)NC(=O)[C@H](CC(=O)O)NC(=O)CNC(=O)[C@H](CCC(=O)O)NC(=O)[C@@H](NC(=O)[C@H](Cc2ccc(O)cc2)NC(=O)[C@@H](NC(=O)CCC(=O)NCCCOCCOCCOCCCNC(=O)CN2CCN(CC(=O)O)CCN(CC(=O)O)CCN(CC(=O)O)CC2)C(C)C)CSCc2cccc(c2)CSC[C@@H](C(N)=O)NC(=O)[C@H](CCC(N)=O)NC(=O)[C@H](Cc2c[nH]c3ccccc23)NC(=O)[C@H]([C@@H](C)O)NC1=O [3BP-2959] ({X3-Suc}-VYCEGDWLTWQC-NH2; linker 3-12 via mXylylene) | >95 | D (t1/2≤2.0 minutes) | >95 | < 10 |  | 
2 | CC(C)C[C@@H]1NC(=O)[C@H](Cc2c[nH]c3ccccc23)NC(=O)[C@H](CC(=O)O)NC(=O)[C@H]2CCCN2C(=O)[C@H](CCC(=O)O)NC(=O)[C@@H](NC(=O)[C@H](Cc2ccc(O)cc2)NC(=O)[C@@H](NC(=O)CN2CCC(NC(=O)CN3CCN(CC(=O)O)CCN(CC(=O)O)CCN(CC(=O)O)CC3)CC2)C(C)C)CSCc2cccc(c2)CSC[C@@H](C(N)=O)NC(=O)[C@H](C)NC(=O)[C@H](Cc2c[nH]c3ccccc23)NC(=O)[C@H]([C@@H](C)O)NC1=O [3BP-3432] ({DOTA}-[X2]VYCE[dP]DWLTWAC-NH2; linker 4-13 via mXylylene) | >95 | A (t1/2>15.0 minutes) | 98 | < 10 | < 10 | 
3 | CC(=O)N[C@H](C(=O)N[C@@H](Cc1ccc(O)cc1)C(=O)N[C@H]1CSCc2cccc(c2)CSC[C@@H](C(N)=O)NC(=O)[C@H](CCC(=O)NCCCNC(=O)CN2CCN(CC(=O)O)CCN(CC(=O)O)CCN(CC(=O)O)CC2)NC(=O)[C@H](Cc2c[nH]c3ccccc23)NC(=O)[C@H]([C@@H](C)O)NC(=O)[C@H](CC(C)C)NC(=O)[C@H](Cc2c[nH]c3ccccc23)NC(=O)[C@H](CC(=O)O)NC(=O)[C@H]2CCCN2C(=O)[C@H](CCC(=O)O)NC1=O)C(C)C [3BP-3478, Ac-Val-Tyr-[Cys(3MeBn)-Glu-pro-Asp-Trp-Leu-Thr-Trp-Glu(NH-Apr-DOTA)-Cys]-NH2] (Ac-VYCE[dP]DWLTWE(NH(CH2)3NHDOTA)C-NH2; linker 3-12 via mXylylene) | 63 | A (t1/2>15.0 minutes) | >95 | < 10 | < 10 | 
4 | CC(C)C[C@@H]1NC(=O)[C@H](Cc2cccc(NC(=O)CCCS(N)(=O)=O)c2)NC(=O)[C@H](CC(=O)O)NC(=O)[C@H]2CCCN2C(=O)[C@H](CCC(=O)O)NC(=O)[C@@H](NC(=O)[C@H](CCC(N)=O)NC(=O)CN2CCN(C(=O)CN3CCN(CC(=O)O)CCN(CC(=O)O)CCN(CC(=O)O)CC3)CC2)CSCc2cccc(c2)CSC[C@@H](C(N)=O)NC(=O)[C@H](CO)NC(=O)[C@H](Cc2c[nH]c3ccccc23)NC(=O)[C@H]([C@@H](C)O)NC1=O [^natGa-DPI-4452, metal not drawn] |  |  |  |  |  | subnanomolar affinity
5 | CC(C)C[C@@H]1NC(=O)[C@H](Cc2cccc(NC(=O)CCCS(N)(=O)=O)c2)NC(=O)[C@H](CC(=O)O)NC(=O)[C@H]2CCCN2C(=O)[C@H](CCC(=O)O)NC(=O)[C@@H](NC(=O)[C@H](CCC(N)=O)NC(=O)CN2CCN(C(=O)CN3CCN(CC(=O)O)CCN(CC(=O)O)CCN(CC(=O)O)CC3)CC2)CSCc2cccc(c2)CSC[C@@H](C(N)=O)NC(=O)[C@H](CO)NC(=O)[C@H](Cc2c[nH]c3ccccc23)NC(=O)[C@H]([C@@H](C)O)NC1=O [^natLu-DPI-4452, metal not drawn] |  |  |  |  |  | subnanomolar affinity
